# Results published in patent US10251889B2, “Substituted pyrazolo[1,5-a]pyrimidine compounds as Trk kinase inhibitors” (Array BioPharma, Inc., priority 2009, dated 2019).
# Target: Jak2 (human Jak2 kinase domain, amino acids 808-1132) (Homo sapiens (Human), UniProt O60674)
# Assay: Jak2 inhibition assay (Omnia kinase assay)
# Format: biochemical
# Conditions: read-out: Jak2 Enzyme (% inhibition at 1000 nM), Table 1; 1000 nM test compound
# Chain of Jak2 (human Jak2 kinase domain, amino acids 808-1132) (O60674 808-1132): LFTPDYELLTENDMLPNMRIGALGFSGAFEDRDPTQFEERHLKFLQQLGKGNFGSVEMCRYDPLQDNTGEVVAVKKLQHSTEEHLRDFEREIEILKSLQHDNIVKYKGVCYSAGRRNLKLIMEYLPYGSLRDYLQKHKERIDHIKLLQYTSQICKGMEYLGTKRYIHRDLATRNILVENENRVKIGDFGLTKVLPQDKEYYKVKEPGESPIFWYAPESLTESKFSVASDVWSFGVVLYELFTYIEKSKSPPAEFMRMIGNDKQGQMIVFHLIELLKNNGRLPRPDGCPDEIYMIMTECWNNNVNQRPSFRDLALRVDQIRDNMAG
row,Compound,inhibition at 1 µM [%]
1,"O=C(NCCO)c1cnn2ccc(N3CCC[C@@H]3c3cncc(F)c3)nc12 [Example 112, (R)-5-(2-(5-fluoropyridin-3-yl)pyrrolidin-1-yl)-N-(2-hydroxyethyl)pyrazolo[1,5-a]pyrimidine-3-carboxamide]",3.2
2,"C[C@H](CO)NC(=O)c1cnn2ccc(N3CCC[C@@H]3c3cncc(F)c3)nc12 [Example 115, 5-((R)-2-(5-fluoropyridin-3-yl)pyrrolidin-1-yl)-N-((R)-1-hydroxypropan-2-yl)pyrazolo[1,5-a]pyrimidine-3-carboxamide]",12.6
3,"C[C@@H](CO)NC(=O)c1cnn2ccc(N3CCC[C@@H]3c3cncc(F)c3)nc12 [Example 116, 5-((R)-2-(5-fluoropyridin-3-yl)pyrrolidin-1-yl)-N-((S)-1-hydroxypropan-2-yl)pyrazolo[1,5-a]pyrimidine-3-carboxamide]",4.7
4,"COCC(O)CNC(=O)c1cnn2ccc(N3CCCC3c3cncc(F)c3)nc12 [Example 119, 5-((R)-2-(5-fluoropyridin-3-yl)pyrrolidin-1-yl)-N-(2-hydroxy-3-methoxypropyl)pyrazolo[1,5-a]pyrimidine-3-carboxamide]",1.7
5,"CC(C)[C@@H](CO)NC(=O)c1cnn2ccc(N3CCC[C@@H]3c3cncc(F)c3)nc12 [Example 121, 5-((R)-2-(5-fluoropyridin-3-yl)pyrrolidin-1-yl)-N-((S)-1-hydroxy-3-methylbutan-2-yl)pyrazolo[1,5-a]pyrimidine-3-carboxamide]",3.7
6,"CC(C)(CO)CNC(=O)c1cnn2ccc(N3CCC[C@@H]3c3cncc(F)c3)nc12 [Example 125, (R)-5-(2-(5-fluoropyridin-3-yl)pyrrolidin-1-yl)-N-(3-hydroxy-2,2-dimethylpropyl)pyrazolo[1,5-a]pyrimidine-3-carboxamide]",6.1
7,"O=C(c1cnn2ccc(N3CCC[C@@H]3c3cncc(F)c3)nc12)N1CC[C@H](O)C1 [Example 128, (5-((R)-2-(5-fluoropyridin-3-yl)pyrrolidin-1-yl)pyrazolo[1,5-a]pyrimidin-3-yl)((S)-3-hydroxypyrrolidin-1-yl)methanone]",1.2
8,"C[C@H](NC(=O)c1cnn2ccc(N3CCC[C@@H]3c3cncc(F)c3)nc12)C(F)(F)F [Example 130, 5-((R)-2-(5-fluoropyridin-3-yl)pyrrolidin-1-yl)-N-((S)-1,1,1-trifluoropropan-2-yl)pyrazolo[1,5-a]pyrimidine-3-carboxamide]",27.9
9,CC(C)(CO)NC(=O)c1cnn2ccc(N3CCC[C@@H]3c3cncc(F)c3)nc12 [Example 132],3.7
10,"O=C(N[C@@H]1CCC[C@@H]1O)c1cnn2ccc(N3CCC[C@@H]3c3cncc(F)c3)nc12 [Example 135, 5-((R)-2-(5-fluoropyridin-3-yl)pyrrolidin-1-y1)-N-((1R,2S)-2-hydroxycyclopentyl)pyrazolo[1,5-a]pyrimidine-3-carboxainide]",-1
11,"O=C(c1cnn2ccc(N3CCC[C@@H]3c3cncc(F)c3)nc12)N1CCCCC1 [Example 137, (R)-(5-(2-(5-fluoropyridin-3-yl)pyrrolidin-1-yl)pyrazolo[1,5-a]pyrimidin-3-yl)(piperidin-1-yl)methanone]",3.6
12,"COc1ncc(F)cc1[C@H]1CCCN1c1ccn2ncc(C(=O)N3CC(O)C3)c2n1 [Example 139, (R)-(5-(2-(5-fluoro-2-methoxypyridin-3-yl)pyrrolidin-1-yl)pyrazolo[1,5-a]pyrimidin-3-yl)(3-hydroxyazetidin-1-yl)methanone]",-0.4
13,"NCCCNC(=O)c1cnn2ccc(N3CCC[C@@H]3c3cc(F)c[nH]c3=O)nc12 [Example 142, (R)—N-(3-aminopropyl)-5-(2-(5-fluoro-2-oxo-1,2-dihydropyridin-3-yl)pyrrolidin-1-yl)pyrazolo[1,5-a]pyrimidine-3-carboxamide]",-0.9
14,"COc1ncc(F)cc1[C@H]1CCCN1c1ccn2ncc(C(=O)NCCCO)c2n1 [Example 148, (R)-5-(2-(5-fluoro-2-methoxypyridin-3-yl)pyrrolidin-1-yl)-N-(3-hydroxypropyl)pyrazolo[1,5-a]pyrimidine-3-carboxamide]",44.3

# Other lines, results leading:
row,inhibition at 1 µM [%],Compound
1,7.1,"O=C(NC1(CO)CC1)c1cnn2ccc(N3CCC[C@@H]3c3cncc(F)c3)nc12 [Example 107, (R)-5-(2-(5-fluoropyridin-3-yl)pyrrolidin-1-yl)-N-(1-(hydroxymethyl)cyclopropyl)pyrazolo [1,5-a]pyrimidine-3-carboxamide]"
2,2.8,"O=C(c1cnn2ccc(N3CCC[C@@H]3c3cncc(F)c3)nc12)N1CC(O)C1 [Example 108, (R)-(5-(2-(5-fluoropyridin-3-yl)pyrrolidin-1-yl)pyrazolo[1,5-a]pyrimidin-3-yl)(3-hydroxyazetid-1-yl)methanone]"
3,-0.3,"C[C@H](O)CNC(=O)c1cnn2ccc(N3CCC[C@@H]3c3cncc(F)c3)nc12 [Example 109, 5-((R)-2-(5-fluoropyridin-3-yl)pyrrolidin-1-yl)-N-((S)-2-hydroxypropyl)pyrazolo[1,5-a]pyrimidine-3-carboxamide]"
4,-0.5,"C[C@@H](O)CNC(=O)c1cnn2ccc(N3CCC[C@@H]3c3cncc(F)c3)nc12 [Example 110, 5-((R)-2-(5-fluoropyridin-3-yl)pyrrolidin-1-yl)-N-((R)-2-hydroxypropyl)pyrazolo[1,5-a]pyrimidine-3-carboxamide]"
5,0.1,"CC(C)(O)CNC(=O)c1cnn2ccc(N3CCC[C@@H]3c3cncc(F)c3)nc12 [Example 111, (R)-5-(2-(5-fluoropyridin-3-yl)pyrrolidin-1-yl)-N-(2-hydroxy-2-methylpropyl)pyrazolo[1,5-a]pyrimidine-3-carboxamide]"
6,44.6,"CC(NC(=O)c1cnn2ccc(N3CCCC3c3cncc(F)c3)nc12)C1CC1 [Example 113, N-(1-cyclopropylethyl)-5-((R)-2-(5-fluoropyridin-3-yl)pyrrolidin-1-yl)pyrazolo[1,5-a]pyrimidine-3-carboxamide]"
7,-1.4,"NC(=O)c1cnn2ccc(N3CCC[C@@H]3c3cncc(F)c3)nc12 [Example 117, (R)-5-(2-(5-fluoropyridin-3-yl)pyrrolidin-1-yl)pyrazolo[1,5-a]pyrimidine-3-carboxamide]"
8,-4.5,"COCC(C)NC(=O)c1cnn2ccc(N3CCCC3c3cncc(F)c3)nc12 [Example 118, 5-((R)-2-(5-fluoropyridin-3-yl)pyrrolidin-1-yl)-N-(1-methoxypropan-2-yl)pyrazolo[1,5-a]pyrimidine-3-carboxamide]"
9,2.3,"O=C(NC1CCC[C@@H]1O)c1cnn2ccc(N3CCCC3c3cncc(F)c3)nc12 (stereo partly drawn) [Example 120, 5-((R)-2-(5-fluoropyridin-3-yl)pyrrolidin-1-yl)-N-((trans)-2-hydroxycyclopentyl)pyrazolo[1,5-a]pyrimidine-3-carboxamide]"
10,7.4,"CC(C)[C@H](CO)NC(=O)c1cnn2ccc(N3CCC[C@@H]3c3cncc(F)c3)nc12 [Example 122, 5-((R)-2-(5-fluoropyridin-3-yl)pyrrolidin-1-yl)-N-((R)-1-hydroxy-3-methylbutan-2-yl)pyrazolo[1,5-a]pyrimidine-3-carboxamide]"
11,-1,"O=C(c1cnn2ccc(N3CCC[C@@H]3c3cncc(F)c3)nc12)N1CCC1 [Example 126, (R)-azetidin-1-yl(5-(2-(5-fluoropyridin-3-yl)pyrrolidin-1-yl)pyrazolo[1,5-a]pyrimidin-3-yl)methanone]"
12,0.2,"O=C(c1cnn2ccc(N3CCC[C@@H]3c3cncc(F)c3)nc12)N1CC(CO)C1 [Example 127, (R)-(5-(2-(5-fluoropyridin-3-yl)pyrrolidin-1-yl)pyrazolo[1,5-a]pyrimidin-3-yl)(3-(hydroxymethyl)azetidin-1-yl)methanone]"
13,14.6,"O=C(NCC(F)(F)F)c1cnn2ccc(N3CCC[C@@H]3c3cncc(F)c3)nc12 [Example 131, (R)-5-(2-(5-fluoropyridin-3-yl)pyrrolidin-1-yl)-N-(2,2,2-trifluoroethyl)pyrazolo[1,5-a]pyrimidine-3-carboxamide]"
14,3.3,"O=C(NCC(F)F)c1cnn2ccc(N3CCC[C@@H]3c3cncc(F)c3)nc12 [Example 134, (R)-N-(2,2-difluoroethyl)-5-(2-(5-fluoropyridin-3-yl)pyrrolidin-1-yl)pyrazolo[1,5-a]pyrimidine-3-carboxamide]"
15,4.8,"O=C(N[C@@H]1CCCC[C@H]1O)c1cnn2ccc(N3CCC[C@@H]3c3cncc(F)c3)nc12 [Example 136, 5-((R)-2-(5-fluoropyridin-3-yl)pyrrolidin-1-yl)-N-((1R,2R)-2-hydroxycyclohexyl)pyrazolo[1,5-a]pyrimidine-3-carboxamide]"
16,9.4,"COc1ncc(F)cc1[C@H]1CCCN1c1ccn2ncc(C(=O)NCCCNC(=O)OC(C)(C)C)c2n1 [Example 141, (R)-tert-butyl 3-(5-(2-(5-fluoro-2-methoxypyridin-3-yl)pyrrolidin-1-yl)pyrazolo[1,5-a]pyrimidine-3-carboxamido)propylcarbamate]"
17,7,"COc1ncc(F)cc1[C@H]1CCCN1c1ccn2ncc(C(=O)NC[C@H](O)CO)c2n1 [Example 143, N—((S)-2,3-dihydroxypropyl)-5-((R)-2-(5-fluoro-2-methoxypyridin-3-yl)pyrrolidin-1-yl)pyrazolo[1,5-a]pyrimidine-3-carboxamide]"
18,0.9,"COc1ncc(F)cc1[C@H]1CCCN1c1ccn2ncc(C(=O)N3CC(C)(O)C3)c2n1 [Example 147, (R)-(5-(2-(5-fluoro-2-methoxypyridin-3-yl)pyrrolidin-1-yl)pyrazolo[1,5-a]pyrimidin-3-yl)(3-hydroxy-3-methylazetidin-1-yl)methanone]"
19,10.2,"COc1ncc(F)cc1[C@H]1CCCN1c1ccn2ncc(C(=O)NCC(O)CO)c2n1 (stereo partly drawn) [Example 149, N-(2,3-dihydroxypropyl)-5-((R)-2-(5-fluoro-2-methoxypyridin-3-yl)pyrrolidin-1-yl)pyrazolo[1,5-a]pyrimidine-3-carboxamide]"
